Data from patent publication US8987314B2, “Amide, urea or sulfone amide linked benzothiazole inhibitors of endothelial lipase” (Bristol-Myers Squibb Company, priority 2012, dated 2015).

Tests used:
[1] = molecular target: hepatic lipase (HL) (Homo sapiens (Human), UniProt P11150); assay: HL assay: hepatic lipase activity with fluorescent substrate A10070 in DMPG vesicles; assay type: biochemical
Description: Endothelial lipase (EL) and hepatic lipase (HL) activities were measured using a fluorescent substrate, A10070, (Invitrogen, CA) doped into an artificial vesicle containing DMPG (Avanti Polar Lipids) as the excipient. Vesicles were prepared by combining 571 μL of 29 mM DMPG in a 1:1 mixture of MeOH and CHCl3 with 2000 μL of 1 mM A10070 in a 1:1 mixture of MeOH and CHCl3. The mixture was dried under nitrogen in multiple vials then resuspended in 20 mL total volume of 50 mM HEPES pH 8.0 buffer containing 50 mM NaCl and 0.2 mM EDTA. The sample was allowed to sit at room temperature for 15 min and then was sonicated 3×4 mins on ice with a Branson Sonicator using duty cycle 1. This preparation provides vesicles with a mole fraction of 0.11 for the FRET substrate.
The enzymatic assay was measured using 384-well white Optiplates. Each well contained 20 μL of assay buffer (50 mM HEPES pH 8.0, 50 mM NaCl and 1 mM CaCl2) and 0.25 μL of a DMSO solution containing a compound of interest. EL or HL (10 μL) was added and allowed to incubate with the compound for 30 min at 37° C. The source of EL was conditioned media obtained from HT-1080 cells that were transformed using RAGE technology (Athersys) to overexpress endogenous EL, and HL was partially purified from conditioned media obtained from COS cells overexpressing HL. The reaction was started by the addition of 10 μL of a 1:10 dilution of vesicles. The final total reaction volume was […]. The reaction rates were measured on a Gemini plate reader with an excitation wavelength of 490 nm and an emission wavelength of 530 nm. Readings were taken over a period of 60 minutes, and the slope between 300 and 900 secs of the readout was used to calculate the rate of the reaction.

[2] = molecular target: Endothelial lipase (EL) (Homo sapiens (Human), UniProt Q9Y5X9); assay: EL assay: endothelial lipase activity with fluorescent substrate A10070 in DMPG vesicles; assay type: biochemical
In short: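 EL from conditioned medium of HT-1080 cells engineered to overexpress endogenous EL; HL partially purified from conditioned medium of HL-overexpressing COS cells. Enzyme preincubated with compound 30 min at 37° C in 50 mM HEPES pH 8.0, 50 mM NaCl, 1 mM CaCl2; DMPG vesicles carrying FRET substrate (0.11 mole fraction) then added.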

Chain of hepatic lipase (HL) (P11150 23-499, species assumed): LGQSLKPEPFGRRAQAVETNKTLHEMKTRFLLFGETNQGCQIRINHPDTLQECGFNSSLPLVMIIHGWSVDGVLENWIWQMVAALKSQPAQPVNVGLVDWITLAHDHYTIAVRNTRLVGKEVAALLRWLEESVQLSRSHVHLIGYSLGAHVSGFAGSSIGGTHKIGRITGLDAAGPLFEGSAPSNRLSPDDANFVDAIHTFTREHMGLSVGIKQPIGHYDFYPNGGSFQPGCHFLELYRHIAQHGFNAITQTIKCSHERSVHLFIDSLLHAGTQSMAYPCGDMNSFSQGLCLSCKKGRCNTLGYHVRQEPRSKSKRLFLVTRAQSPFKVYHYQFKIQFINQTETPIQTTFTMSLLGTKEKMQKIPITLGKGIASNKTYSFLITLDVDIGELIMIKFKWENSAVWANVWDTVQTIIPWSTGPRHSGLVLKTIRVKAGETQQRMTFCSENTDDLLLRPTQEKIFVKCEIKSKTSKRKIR
Chain of Endothelial lipase (EL) (Q9Y5X9 21-500): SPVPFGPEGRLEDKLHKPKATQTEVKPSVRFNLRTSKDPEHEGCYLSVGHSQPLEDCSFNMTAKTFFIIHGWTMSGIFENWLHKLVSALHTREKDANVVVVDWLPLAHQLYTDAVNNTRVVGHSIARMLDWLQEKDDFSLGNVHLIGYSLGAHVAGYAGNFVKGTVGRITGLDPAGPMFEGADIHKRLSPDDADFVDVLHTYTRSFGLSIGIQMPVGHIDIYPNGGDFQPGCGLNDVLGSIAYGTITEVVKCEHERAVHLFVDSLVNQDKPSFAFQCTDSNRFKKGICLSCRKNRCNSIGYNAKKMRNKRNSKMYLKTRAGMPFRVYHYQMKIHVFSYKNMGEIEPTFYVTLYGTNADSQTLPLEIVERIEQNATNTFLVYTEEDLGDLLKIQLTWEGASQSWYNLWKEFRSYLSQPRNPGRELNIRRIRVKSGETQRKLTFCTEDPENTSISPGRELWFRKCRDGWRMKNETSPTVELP

Row | SMILES | IC50 [1] [µM] | IC50 [2] [µM]
1 | CS(=O)(=O)C(C(=O)NCCS(N)(=O)=O)c1nc2ccc(-c3cccc(F)c3)cc2s1 (stereo not drawn) [Example B37, 2-(6-(3-fluorophenyl)-1,3-benzothiazol-2-yl)-2-(methylsulfonyl)-N-(2-sulfamoylethyl)acetamide] | < 0.01 | < 0.01
2 | COCc1ccc(-c2ccc3nc(C(C(=O)NCCS(N)(=O)=O)S(=O)(=O)Cc4ccc(OC(F)(F)F)cc4)sc3c2)cc1 (stereo not drawn) [Example B285, 2-{6-[4-(methoxymethyl)phenyl]-1,3-benzothiazol-2-yl}-N-(2-sulfamoylethyl)-2-{[4-(trifluoromethoxy)phen-yl]methanesulfonyl}a-cetamide] | 0.126 | 0.0054
3 | NS(=O)(=O)CCNC(=O)C(c1nc2ccc(-c3ccc(CO)cc3)cc2s1)S(=O)(=O)CCN1CCOCC1 (stereo not drawn) [Example B314, 2-{6-[4-(hydroxymeth-yl)phenyl]-1,3-benzothiazol-2-yl}-2-[2-(morpholin-4-yl)ethanesulfonyl]-N-(2-sulfamoylethyl)acetamide] | 0.0351 | 0.0161
4 | CS(=O)(=O)C(C(=O)NCCS(N)(=O)=O)c1nc2ccc(-c3cccc(CCO)c3)cc2s1 (stereo not drawn) [Example B58, 2-(6-(3-(2-hydroxyethyl)phenyl)-1,3-benzothiazol-2-yl)-2-(methylsulfonyl)-N-(2-sulfamoylethyl)acetamide] | 0.036 | < 0.01
5 | NS(=O)(=O)CCNC(=O)C(c1nc2cc(F)c(-c3ccccc3)cc2s1)S(=O)(=O)CCC(F)(F)F (stereo not drawn) [Example B136, 2-(5-fluoro-6-phenyl-1,3-benzothiazol-2-yl)-N-(2-sulfamoylethyl)-2-[(3,3,3-trifluoropropyl)sulfonyl]a-cetamide] | 0.011 | < 0.01
6 | COCC(C)(C)NC(=O)c1ccc(-c2ccc3nc(C(C(=O)NCCS(N)(=O)=O)S(=O)(=O)Cc4ccc(OC(F)(F)F)cc4)sc3c2)cc1 (stereo not drawn) [Example B249, N-(1-methoxy-2-methyl-propan-2-yl)-4-(2-{[(2-sulfamoylethyl)carbamoyl][4-(trifluoromethoxy)phen-yl]methanesulfonyl-methyl}-1,3-benzothiazol-6-yl)benzamide] | 0.0294 | 0.0083
7 | Cc1cc2nc(C(C(=O)NCCS(N)(=O)=O)S(C)(=O)=O)sc2cc1-c1ccc(F)nc1 (stereo not drawn) [Example B129] | < 0.01 | < 0.01
8 | COc1ncccc1-c1ccc2nc(C(C(=O)NCCS(N)(=O)=O)S(C)(=O)=O)sc2c1 (stereo not drawn) [Example B184, 2-(6-(2-methoxy-3-pyridinyl)-1,3-benzothiazol-2-yl)-2-(methylsulfonyl)-N-(2-sulfamoylethyl)acetamide] | 0.065 | < 0.01

More lines, now with the values ahead:

Row | IC50 [1] [µM] | IC50 [2] [µM] | SMILES
9 | 0.267 | 0.0029 | NS(=O)(=O)CCNC(=O)C(c1nc2ccc(-c3ccc(C(=O)N4CCOCC4)cc3)cc2s1)S(=O)(=O)Cc1ccc(F)cc1 (stereo not drawn) [Example B296, 2-[(4-fluorophenyl)methanesulfonyl]-2-{6-[4-(morpholine-4-carbon-yl)phenyl]-1,3-benzothiazol-2-yl}-N-(2-sulfamoyleth-yl)acetamide]
10 | 0.0514 | 0.001 | NS(=O)(=O)CCNC(=O)C(c1nc2cc(-c3ccc(F)nc3)ccc2s1)S(=O)(=O)Cc1ccc(F)cc1 (stereo not drawn) [Example B310, 2-[(4-fluorophenyl)meth-anesulfonyl]-2-[5-(6-fluoropyridin-3-yl)-1,3-benzothiazol-2-yl]-N-(2-sulfamoylethyl)acetamide]
11 | 4.74 | 0.018 | NS(=O)(=O)CCNC(=O)C(c1nc2ccc(-c3cncnc3)cc2s1)S(=O)(=O)Cc1ccc(F)cc1 (stereo not drawn) [Example B143, 2-((4-fluorobenzyl)sul-fonyl)-2-(6-(5-pyrimidinyl)-1,3-benzothiazol-2-yl)-N-(2-sulfamoylethyl)acetamide]
12 | 0.0185 | 0.002 | CC1(O)CN(C(=O)c2ccc(-c3ccc4nc(C(C(=O)NCCS(N)(=O)=O)S(=O)(=O)Cc5ccc(F)cc5)sc4c3)cc2)C1 (stereo not drawn) [Example B353, 2-[(4-fluorophenyl)meth-anesulfonyl]-2-{6-[4-(3-hydroxy-3-methylazetidine-1-carbonyl)phcnyl]-1,3-benzothiazol-2-yl}-N-(2-sulfamoylethyl)acetamide]
